Structures are written as SMILES.

The values below come from US10961200B2, “Small molecule inhibitors of lactate dehydrogenase and methods of use thereof” (THE UNITED STATES OF AMERICA, AS REPRESENTED BY THE …, priority 2014, dated 2021).

The target of one test is Human LDHA (Homo sapiens (Human), UniProt P00338). In words: human LDHA primary biochemical assay (resazurin/diaphorase coupled, fluorescence). Conditions: LDHA inhibitory activity, activity level based on IC50 (Table 7). An excerpt:
Test compounds were placed in a Greiner Bio-One (Monroe, N.C.) 1536-well black solid bottom assay plate. 200 millimolar (mM) Tris HCl, pH 7.4, 100 micromolar […] EDTA and 0.01% TWEEN-20™, final concentration, was used as the assay buffer. The LDHA reagent was 2 nanomolar (nM) Human LDHA (Meridian Life Science, Inc., Memphis, Tenn.), final concentration, in assay buffer.
Background: The colour change of resazurin is a common sign of viable cells or microbes.
For orientation: IC50 means the point on the concentration scale where inhibition reaches its midpoint. For `COc1cccc(-c2cccc(-c3c(Cc4ccc([S+](N)(=O)[O-])c(F)c4)c(C4CC4)nn3-c3nc(C(=O)O)cs3)c2)c1` [Compound 352], the IC50 was 1 to 57 µM.

Consider `COc1cccc(COc2cccc(-c3nn(-c4nc(C(=O)O)cs4)cc3Cc3ccc(S(N)(=O)=O)cc3)c2)c1` [Compound 462, 2-(3-(3-((3-methoxybenzyl)oxy)phenyl)-4-(4-sulfamoylbenzyl)-1H-pyrazol-1-yl)thiazole-4-carboxylic acid], for which the IC50 was under 0.1 µM.

Take `N[S+](=O)([O-])c1ccc(Cc2c(C3CC3)nn(-c3nc(C(=O)O)cs3)c2-c2cccc(-c3cccc(F)c3)c2)cc1F` [Compound 350]: the half-maximal inhibitory concentration (IC50) lay in the range of 1 to 57 µM.

The molecule `N[S+](=O)([O-])c1ccc(Cc2c(C3CC3)nn(-c3nc(C(=O)O)cs3)c2-c2cccc(-c3ccc(F)cc3)c2)cc1F` [Compound 348] returned an IC50 of 1 to 57 µM.

`NS(=O)(=O)c1ccc(Cc2c(-c3ccc(F)c(/C=C/C4CCCC4)c3)nn(-c3nc(C(=O)O)cs3)c2CC2CC2)cc1F` [Compound 535, (E)-2-(3-(3-(2-cyclopentylvinyl)-4-fluorophenyl)-5-(cyclopropylmethyl)-4-(3-fluoro-4-sulfamoylbenzyl)-1H-pyrazol-1-yl)thiazole-4-carboxylic acid] had a 50% inhibitory concentration (IC50) of under 0.1 µM.

On to `Cc1cc(C)cc(-c2cc(-c3nn(-c4nc(C(=O)O)cs4)cc3Cc3ccc(S(N)(=O)=O)cc3)ccc2C)c1` [Compound 495, 2-(4-(4-sulfamoylbenzyl)-3-(3′,5′,6-trimethyl-[1,1′-biphenyl]-3-yl)-1H-pyrazol-1-yl)thiazole-4-carboxylic acid], for which the half-inhibitory concentration (IC50) fell in the range of 0.1 to 1 µM.

`Cc1cc(-c2cc(-c3nn(-c4nc(C(=O)O)cs4)cc3Cc3ccc(S(N)(=O)=O)cc3)ccc2C)ccc1F` [Compound 493, 2-(3-(4′-fluoro-3′,6-dimethyl-[1,1′-biphenyl]-3-yl)-4-(4-sulfamoylbenzyl)-1H-pyrazol-1-yl)thiazole-4-carboxylic acid] displayed an IC50 of 0.1 to 1 µM.

Consider `Cc1ccc(C#Cc2cccc(-c3nn(-c4nc(C(=O)O)cs4)c(CC4CC4)c3Cc3ccc(S(N)(=O)=O)c(F)c3)c2)s1` [Compound 449], for which the IC50 was under 0.1 µM.

Still in this test, the particulars now being: LDHA inhibitory activity, assay of Example 1; activity level classes.
Turning to `CCOC(=O)c1csc(-n2nc(-c3ccccc3)c(Cc3ccc(S(N)(=O)=O)cc3)c2Cc2nnn[nH]2)n1` [Compound 134, ethyl 2-(5-((1H-tetrazol-5-yl)methyl)-3-phenyl-4-(4-sulfamoylbenzyl)-1H-pyrazol-1-yl)thiazole-4-carboxylate], the IC50 was over 57 µM.

`CC(C)(C)OC(=O)c1csc(-n2nc(-c3ccc(F)c(F)c3)c(Cc3cccc(S(N)(=O)=O)c3)c2O)n1` [Compound 117, tert-butyl 2-(3-(3,4-difluorophenyl)-5-hydroxy-4-(3-sulfamoylbenzyl)-1H-pyrazol-1-yl)thiazole-4-carboxylate] displayed a concentration for half-maximal inhibition (IC50) of over 57 µM.

`Cc1ccc(-c2cccc(-c3nn(-c4nc(C(=O)O)cs4)c(CC4CC4)c3Cc3ccc(S(N)(=O)=O)cc3F)c2)cc1` [Compound 282] had an IC50 of under 0.1 µM.

In the case of `CCOC(=O)c1csc(-n2nc(-c3cccc(-c4ccccc4)c3)c(Cc3ccc(S(N)(=O)=O)cc3F)c2C2CC2)n1` [Compound 244], the IC50 was over 57 µM.

With `CCOC(=O)c1csc(-n2nc(-c3ccccc3)c(Oc3ccc(S(N)(=O)=O)cc3)c2C2CCCC2)n1` [Compound 169, ethyl 2-(5-cyclopentyl-3-phenyl-4-(4-sulfamoylphenoxy)-1H-pyrazol-1-yl)thiazole-4-carboxylate], the IC50 is over 57 µM.

The molecule `Cc1ccc(-c2cc(-c3nn(-c4nc(C(=O)O)cs4)c(C4CC4)c3Cc3ccc(S(N)(=O)=O)c(F)c3)ccc2F)cc1` [Compound 249] displayed an IC50 of under 0.1 µM.

`CCOC(=O)c1csc(-n2nc(-c3cccc(OC4CCCC4)c3)c(Cc3ccc(S(N)(=O)=O)c(F)c3)c2CC2CC2)n1` [Compound 333] displayed an IC50 of 1 to 57 µM.

In turn, `O=C(O)c1csc(-n2nc(-c3ccc(CCNS(=O)(=O)C4CC4)c(F)c3)cc2O)n1` [Compound 112, 2-(3-(4-(2-(cyclopropanesulfonamido)ethyl)-3-fluorophenyl)-5-hydroxy-1H-pyrazol-1-yl)thiazole-4-carboxylic acid] came in with an IC50 of over 57 µM.

Turning to `NS(=O)(=O)c1ccc(Cc2c(-c3ccc(F)c(-c4cccc(F)c4)c3)nn(-c3nc(C(=O)O)cs3)c2C2CC2)c(F)c1` [Compound 255], the IC50 was under 0.1 µM.

The molecule `NC(=O)c1csc(-n2nc(-c3ccccc3)c(Cc3ccc(S(N)(=O)=O)cc3)c2C(F)(F)F)n1` [Compound 127, 2-(3-phenyl-4-(4-sulfamoylbenzyl)-5-(trifluoromethyl)-1H-pyrazol-1-yl)thiazole-4-carboxamide] showed an IC50 of over 57 µM.

In turn, `CCOC(=O)c1csc(-n2nc(-c3ccccc3)c(Cc3ccc(S(N)(=O)=O)cc3)c2CC#N)n1` [Compound 135, ethyl 2-(5-(cyanomethyl)-3-phenyl-4-(4-sulfamoylbenzyl)-1H-pyrazol-1-yl)thiazole-4-carboxylate] gave an IC50 of over 57 µM.

The molecule `N[S+](=O)([O-])c1ccc(Cc2c(CC3CC3)nn(-c3nc(C(=O)O)cs3)c2-c2ccc(F)c(-c3cccc(F)c3)c2)cc1F` [Compound 325] returned an IC50 of 1 to 57 µM.

Molecule `O=C(O)c1csc(-n2cc(Cc3ccc(CO)cc3)c(-c3ccccc3)n2)n1` [Compound 199, 2-(4-(4-(hydroxymethyl)benzyl)-3-phenyl-1H-pyrazol-1-yl)thiazole-4-carboxylic acid] showed an IC50 of over 57 µM.

Molecule `Nc1c(Cc2ccc(S(N)(=O)=O)cc2)c(-c2ccccc2)nn1-c1cccc(C(=O)O)c1` [Compound 130, 3-(5-amino-3-phenyl-4-(4-sulfamoylbenzyl)-1H-pyrazol-1-yl)benzoic acid] had an IC50 of over 57 µM.

In turn, `CCOC(=O)c1csc(-n2nc(-c3cccc(-c4ccccc4)c3)c(Cc3ccc(S(N)(=O)=O)cc3)c2C2(C(F)(F)F)CC2)n1` [Compound 297] registered a half-maximal inhibitory concentration (IC50) of over 57 µM.

The test is the same for the next values; noted with them: read-out: Inhibitory activity IC50.
Take `N[S+](=O)([O-])c1ccc(Cc2c(Cc3ccccc3)nn(-c3nc(C(=O)O)cs3)c2-c2ccccc2)cc1` [Compound 275]: the IC50 fell in the range of 1 to 57 µM.

On to `NS(=O)(=O)c1ccc(Cc2c(-c3ccccc3)nn(-c3nc(C(=O)O)cs3)c2Cc2nnn[nH]2)cc1` [Compound 87, 2-(5-((1H-tetrazol-5-yl)methyl)-3-phenyl-4-(4-sulfamoylbenzyl)-1H-pyrazol-1-yl)thiazole-4-carboxylic acid], for which the half-inhibitory concentration (IC50) lay in the range of 1 to 57 µM.

As to `O=C(O)c1ccc(Cc2c(-c3cccc(-c4ccccc4)c3)nn(-c3nc(C(=O)O)cs3)c2O)cc1` [Compound 68, 2-(3-([1,1′-biphenyl]-3-yl)-4-(4-carboxybenzyl)-5-hydroxy-1H-pyrazol-1-yl)thiazole-4-carboxylic acid], the 50% inhibitory concentration (IC50) is over 57 µM.

For `CC(C)c1nn(-c2nc(C(=O)O)cs2)c(-c2ccccc2)c1Cc1ccc(S(N)(=O)=O)cc1` [Compound 158, 2-(3-isopropyl-5-phenyl-4-(4-sulfamoylbenzyl)-1H-pyrazol-1-yl)thiazole-4-carboxylic acid], the IC50 lay within 1 to 57 µM.

On to `Cc1noc(C)c1-c1cc(-c2c(Cc3ccc(S(N)(=O)=O)c(F)c3)c(CC3CC3)nn2-c2nc(C(=O)O)cs2)ccc1F` [Compound 220, 2-(3-(cyclopropylmethyl)-5-(3-(3,5-dimethylisoxazol-4-yl)-4-fluorophenyl)-4-(3-fluoro-4-sulfamoylbenzyl)-1H-pyrazol-1-yl)thiazole-4-carboxylic acid], for which the IC50 was over 57 µM.

In the case of `O=C(O)c1csc(-n2nc(-c3ccccc3)cc2C(F)(F)F)n1` [Compound 62, 2-(3-phenyl-5-(trifluoromethyl)-1H-pyrazol-1-yl)thiazole-4-carboxylic acid], the IC50 lay within 1 to 57 µM.

For `NS(=O)(=O)c1ccc(Oc2c(C3CC3)nn(-c3nc(C(=O)O)cs3)c2-c2cccc(-c3ccccc3)c2)cc1` [Compound 186, 2-(5-([1,1′-biphenyl]-3-yl)-3-cyclopropyl-4-(4-sulfamoylphenoxy)-1H-pyrazol-1-yl)thiazole-4-carboxylic acid], the IC50 fell in the range of 1 to 57 µM.

On to `NC(=O)c1csc(-n2nc(-c3ccccc3)c(Cc3ccc(S(N)(=O)=O)cc3)c2I)n1` [Compound 78, 2-(5-iodo-3-phenyl-4-(4-sulfamoylbenzyl)-1H-pyrazol-1-yl)thiazole-4-carboxamide], for which the IC50 was 1 to 57 µM.

`N[S+](=O)([O-])c1ccc(Cc2c(CC3CC3)nn(-c3nc(C(=O)O)cs3)c2-c2ccc(F)c(-c3cccc(F)c3)c2)c(F)c1` [Compound 323]: the IC50 lay in the range of 1 to 57 µM.

As to `CCOC(=O)c1csc(-n2nc(-c3ccc(F)c(F)c3)c(Cc3ccc(S(N)(=O)=O)cc3)c2N)n1` [Compound 123, ethyl 2-(5-amino-3-(3,4-difluorophenyl)-4-(4-sulfamoylbenzyl)-1H-pyrazol-1-yl)thiazole-4-carboxylate], the IC50 is 1 to 57 µM.

For `NS(=O)(=O)c1ccc(Oc2c(C3CCCC3)nn(-c3nc(C(=O)O)cs3)c2-c2ccccc2)cc1` [Compound 170, 2-(3-cyclopentyl-5-phenyl-4-(4-sulfamoylphenoxy)-1H-pyrazol-1-yl)thiazole-4-carboxylic acid], the concentration for half-maximal inhibition (IC50) lay in the range of 1 to 57 µM.

Regarding `Cc1csc(-c2cc(-c3c(Cc4ccc(S(N)(=O)=O)c(F)c4)c(CC4CC4)nn3-c3nc(C(=O)O)cs3)ccc2F)c1` [Compound 224, 2-(3-(cyclopropylmethyl)-5-(4-fluoro-3-(4-methylthiophen-2-yl)phenyl)-4-(3-fluoro-4-sulfamoylbenzyl)-1H-pyrazol-1-yl)thiazole-4-carboxylic acid], the IC50 is over 57 µM.

Turning to `NS(=O)(=O)c1ccc(Cc2c(C3CCCCC3)nn(-c3nc(C(=O)O)cs3)c2-c2ccccc2)cc1` [Compound 176, 2-(3-cyclohexyl-5-phenyl-4-(4-sulfamoylbenzyl)-1H-pyrazol-1-yl)thiazole-4-carboxylic acid], the IC50 lay in the range of 1 to 57 µM.

Turning to `Nc1c(Cc2ccc(S(N)(=O)=O)cc2)c(-c2ccccc2)nn1-c1nc(C(=O)O)co1` [Compound 153, 2-(5-amino-3-phenyl-4-(4-sulfamoylbenzyl)-1H-pyrazol-1-yl)oxazole-4-carboxylic acid], the concentration for half-maximal inhibition (IC50) is 0.1 to 1 µM.
